# System: MV-4-11 cells
# Assay: Gene expression microarray analysis (Affymetrix PrimeView) and GSEA
# Type: cell-based, human
# Parameters: RFU PODN (11730768_x_at) / Fold change /veh PODN (11730768_x_at) / RFU LINC00158 (11744669_a_at) / Fold change /veh LINC00158 (11744669_a_at) / RFU DUSP10 (11751237_a_at) / Fold change /veh DUSP10 (11751237_a_at) / RFU ID3 (11757404_x_at) / Fold change /veh ID3 (11757404_x_at) / RFU PLEKHG5 (11737974_s_at) / Fold change /veh PLEKHG5 (11737974_s_at) / RFU LRRC4B (11730491_at) / Fold change /veh LRRC4B (11730491_at) / RFU GIMAP4 (11747438_a_at) / Fold change /veh GIMAP4 (11747438_a_at) / RFU KRT8 (11758183_x_at) / Fold change /veh KRT8 (11758183_x_at) / RFU CNN1 (11734310_a_at) / Fold change /veh CNN1 (11734310_a_at) / RFU VPS37D (11726825_at) / Fold change /veh VPS37D (11726825_at) / RFU C10orf10 (11716522_x_at) / Fold change /veh C10orf10 (11716522_x_at) / RFU KIR2DL2 /// KIR2DL4 /// KIR2DL5A /// KIR2DL5B /// KIR2DS1 /// KIR2DS2 /// KIR2DS3 /// KIR2DS4 /// KIR3DL3 /// KIR3DL3 /// KIR3DS1 (11738374_at) / Fold change /veh KIR2DL2 /// KIR2DL4 /// KIR2DL5A /// KIR2DL5B /// KIR2DS1 /// KIR2DS2 /// KIR2DS3 /// KIR2DS4 /// KIR3DL3 /// KIR3DL3 /// KIR3DS1 (11738374_at) / RFU C1QL1 (11718748_at) / Fold change /veh C1QL1 (11718748_at) / RFU TMPRSS4 (11747572_a_at) / Fold change /veh TMPRSS4 (11747572_a_at) / RFU HAMP (11756126_x_at) / Fold change /veh HAMP (11756126_x_at) / RFU RNFT2 (11725882_a_at) / Fold change /veh RNFT2 (11725882_a_at) / RFU NR4A2 (11747474_a_at) / Fold change /veh NR4A2 (11747474_a_at) / RFU ABCC12 (11746883_a_at) / Fold change /veh ABCC12 (11746883_a_at) / RFU TMEM136 (11760407_x_at) / Fold change /veh TMEM136 (11760407_x_at) / RFU CLDN22 /// WWC2 (11732394_at) / Fold change /veh CLDN22 /// WWC2 (11732394_at) / RFU HLA-DPB1 (11760878_x_at) / Fold change /veh HLA-DPB1 (11760878_x_at) / RFU SPINT1 (11716480_a_at) / Fold change /veh SPINT1 (11716480_a_at) / RFU GAP43 (11754022_s_at) / Fold change /veh GAP43 (11754022_s_at) / RFU A4GNT (11735810_at) / Fold change /veh A4GNT (11735810_at) / RFU PRB3 (11715151_x_at) / Fold change /veh PRB3 (11715151_x_at) / RFU TUBB4B (11761932_at) / Fold change /veh TUBB4B (11761932_at) / RFU CAPN14 (11732068_a_at) / Fold change /veh CAPN14 (11732068_a_at) / RFU TMCC2 (11721928_a_at) / Fold change /veh TMCC2 (11721928_a_at) / RFU IRGQ (11745062_a_at) / Fold change /veh IRGQ (11745062_a_at) / RFU FAM174B (11720279_a_at) / Fold change /veh FAM174B (11720279_a_at) / RFU TMPRSS4 (11748680_a_at) / Fold change /veh TMPRSS4 (11748680_a_at) / RFU FAM212B (11763350_a_at) / Fold change /veh FAM212B (11763350_a_at) / RFU PLEKHG5 (11743358_a_at) / Fold change /veh PLEKHG5 (11743358_a_at) / RFU ZSCAN30 (11745921_a_at) / Fold change /veh ZSCAN30 (11745921_a_at) / RFU CMKLR1 (11741424_a_at) / Fold change /veh CMKLR1 (11741424_a_at) / RFU LOC101060620 /// MAPK8IP1 (11723275_at) / Fold change /veh LOC101060620 /// MAPK8IP1 (11723275_at) / RFU SPTSSB (11747773_x_at) / Fold change /veh SPTSSB (11747773_x_at) / RFU PRSS12 (11739890_at) / Fold change /veh PRSS12 (11739890_at) / RFU BIN1 (11741810_x_at) / Fold change /veh BIN1 (11741810_x_at) / RFU WNT11 (11732464_a_at) / Fold change /veh WNT11 (11732464_a_at) / RFU C10orf10 (11716521_a_at) / Fold change /veh C10orf10 (11716521_a_at) / RFU C5orf56 (11738089_at) / Fold change /veh C5orf56 (11738089_at) / RFU CYB561 (11721691_x_at) / Fold change /veh CYB561 (11721691_x_at) / RFU ANKRD19P (11752326_a_at) / Fold change /veh ANKRD19P (11752326_a_at) / RFU OR2T12 /// OR2T33 /// OR2T8 (11738714_s_at) / Fold change /veh OR2T12 /// OR2T33 /// OR2T8 (11738714_s_at) / RFU VCAN (11748164_a_at) / Fold change /veh VCAN (11748164_a_at) / RFU JSRP1 (11732532_at) / Fold change /veh JSRP1 (11732532_at) / RFU KRTAP10-11 (11738290_x_at) / Fold change /veh KRTAP10-11 (11738290_x_at) / RFU MYO3A (11730013_a_at) / Fold change /veh MYO3A (11730013_a_at) / RFU EBF3 (11725865_a_at) / Fold change /veh EBF3 (11725865_a_at) / RFU CAMK2N1 (11719241_x_at) / Fold change /veh CAMK2N1 (11719241_x_at) / RFU C5orf56 (11738088_a_at) / Fold change /veh C5orf56 (11738088_a_at) / RFU OLFML3 (11715873_a_at) / Fold change /veh OLFML3 (11715873_a_at) / RFU LOC100653217 /// NTM (11731650_a_at) / Fold change /veh LOC100653217 /// NTM (11731650_a_at) / RFU MAPK11 (11762145_a_at) / Fold change /veh MAPK11 (11762145_a_at) / RFU FIZ1 (11724087_x_at) / Fold change /veh FIZ1 (11724087_x_at) / RFU OASL (11726364_x_at) / Fold change /veh OASL (11726364_x_at) / RFU SOX15 (11748057_x_at) / Fold change /veh SOX15 (11748057_x_at) / RFU CD79A (11719716_a_at) / Fold change /veh CD79A (11719716_a_at) / RFU HIST1H1D (11736915_at) / Fold change /veh HIST1H1D (11736915_at) / RFU CASKIN2 (11723855_a_at) / Fold change /veh CASKIN2 (11723855_a_at) / RFU LOC730098 (11760151_x_at) / Fold change /veh LOC730098 (11760151_x_at) / RFU OR4N2 (11742367_at) / Fold change /veh OR4N2 (11742367_at) / RFU PRRT2 (11749266_a_at) / Fold change /veh PRRT2 (11749266_a_at) / RFU SNX32 (11753110_a_at) / Fold change /veh SNX32 (11753110_a_at) / RFU CDHR5 (11726645_a_at) / Fold change /veh CDHR5 (11726645_a_at) / RFU RCAN1 (11760418_a_at) / Fold change /veh RCAN1 (11760418_a_at) / RFU FAM167A (11723789_a_at) / Fold change /veh FAM167A (11723789_a_at) / RFU FAM26E (11764081_at) / Fold change /veh FAM26E (11764081_at) / RFU ISYNA1 (11749810_s_at) / Fold change /veh ISYNA1 (11749810_s_at) / RFU ACY1 (11761880_at) / Fold change /veh ACY1 (11761880_at) / RFU 11764098_at / Fold change /veh 11764098_at / RFU SAMD14 (11745864_x_at) / Fold change /veh SAMD14 (11745864_x_at) / RFU NPB (11741838_a_at) / Fold change /veh NPB (11741838_a_at) / RFU TMPRSS6 (11731388_a_at) / Fold change /veh TMPRSS6 (11731388_a_at) / RFU KRTAP10-2 (11738614_at) / Fold change /veh KRTAP10-2 (11738614_at) / RFU ARHGAP8 /// PRR5-ARHGAP8 (11727945_x_at) / Fold change /veh ARHGAP8 /// PRR5-ARHGAP8 (11727945_x_at) / RFU KRTAP5-7 /// NADSYN1 (11734609_at) / Fold change /veh KRTAP5-7 /// NADSYN1 (11734609_at) / RFU RASL12 (11751679_a_at) / Fold change /veh RASL12 (11751679_a_at) / RFU CDKN2B (11736163_a_at) / Fold change /veh CDKN2B (11736163_a_at) / RFU PRF1 (11729649_at) / Fold change /veh PRF1 (11729649_at) / RFU, ZNF638 /// ZNF638-IT1 / Fold change vs veh, ZNF638 /// ZNF638-IT1 / RFU, PANK3 / Fold change vs veh, PANK3 / RFU, SH3YL1 / Fold change vs veh, SH3YL1 / RFU, ZEB2 / Fold change vs veh, ZEB2 / RFU, NRIP1 / Fold change vs veh, NRIP1 / RFU, PTTG1IP / Fold change vs veh, PTTG1IP / RFU, CAPN2 / Fold change vs veh, CAPN2 / RFU, MED14 / Fold change vs veh, MED14 / RFU, SNORA58 / Fold change vs veh, SNORA58 / RFU, C1orf63 / Fold change vs veh, C1orf63 / RFU, LRRFIP1 / Fold change vs veh, LRRFIP1 / RFU, NDUFAF7 / Fold change vs veh, NDUFAF7 / RFU, SLC12A2 / Fold change vs veh, SLC12A2 / RFU, IBTK / Fold change vs veh, IBTK / RFU, ESF1 / Fold change vs veh, ESF1 / Fold change vs veh, TMEM50B / RFU, TAOK1 / Fold change vs veh, TAOK1 / RFU, ACBD3 / Fold change vs veh, ACBD3 / RFU, TMA16 / Fold change vs veh, TMA16 / RFU, RWDD3 / Fold change vs veh, RWDD3 / RFU, BCAT1 / Fold change vs veh, BCAT1 / RFU, EDEM3 / Fold change vs veh, EDEM3 / RFU, TMEM33 / Fold change vs veh, TMEM33 / RFU, WDR75 / Fold change vs veh, WDR75 / RFU, AHCTF1 / Fold change vs veh, AHCTF1 / RFU, TFRC / Fold change vs veh, TFRC / RFU, ZDHHC17 / Fold change vs veh, ZDHHC17 / RFU, NOM1 / Fold change vs veh, NOM1 / RFU, ARL8B / Fold change vs veh, ARL8B / RFU, ZBTB11 / Fold change vs veh, ZBTB11 / RFU, TAMM41 / Fold change vs veh, TAMM41 / RFU, KIAA1704 /// LOC100996395 / Fold change vs veh, KIAA1704 /// LOC100996395 / RFU, ING1 / Fold change vs veh, ING1 / RFU, TRMT61B / Fold change vs veh, TRMT61B / RFU, FUBP3 / Fold change vs veh, FUBP3 / RFU, TP53 / Fold change vs veh, TP53 / RFU, TNKS2 / Fold change vs veh, TNKS2 / RFU, ZFP14 / Fold change vs veh, ZFP14 / RFU, ACTR2 / Fold change vs veh, ACTR2 / RFU, PPP3R1 / Fold change vs veh, PPP3R1 / RFU, PIK3R1 / Fold change vs veh, PIK3R1 / RFU, HNRNPA1 / Fold change vs veh, HNRNPA1 / RFU, RNF170 / Fold change vs veh, RNF170 / RFU, ZNF28 / Fold change vs veh, ZNF28 / RFU, RNGTT / Fold change vs veh, RNGTT / RFU, OGT / Fold change vs veh, OGT / RFU, BRD1 / Fold change vs veh, BRD1 / RFU, MARS / Fold change vs veh, MARS / RFU, ZNF655 / Fold change vs veh, ZNF655 / RFU, FAHD1 / Fold change vs veh, FAHD1 / RFU, BDP1 / Fold change vs veh, BDP1 / RFU, LRRCC1 / Fold change vs veh, LRRCC1 / RFU, ARID1A / Fold change vs veh, ARID1A / RFU, ZNF146 / Fold change vs veh, ZNF146 / RFU, ZNF330 / Fold change vs veh, ZNF330 / RFU, GPN3 / Fold change vs veh, GPN3 / RFU, C9orf123 / Fold change vs veh, C9orf123 / RFU, N4BP2L2 / Fold change vs veh, N4BP2L2 / RFU, ARFIP1 / Fold change vs veh, ARFIP1 / RFU, FAM179B / Fold change vs veh, FAM179B / RFU, BCL10 / Fold change vs veh, BCL10 / RFU, UHRF1BP1L / Fold change vs veh, UHRF1BP1L / RFU, BET1 / Fold change vs veh, BET1 / RFU, CNOT2 / Fold change vs veh, CNOT2 / RFU, ZNF268 / Fold change vs veh, ZNF268 / Fold change vs veh, ZNF507 / RFU, DGCR2 / Fold change vs veh, DGCR2 / RFU, WDSUB1 / Fold change vs veh, WDSUB1 / Fold change vs veh, HSP90B1 /// MIR3652 / RFU, ADSS / Fold change vs veh, ADSS / RFU, GK / Fold change vs veh, GK / RFU, ZNF148 / Fold change vs veh, ZNF148 / RFU, TAF9 / Fold change vs veh, TAF9 / RFU, SLC1A5 / Fold change vs veh, SLC1A5 / RFU, SLMO2 / Fold change vs veh, SLMO2 / RFU, ABCC4 / Fold change vs veh, ABCC4 / RFU, LOC101060439 /// RAP1B / Fold change vs veh, LOC101060439 /// RAP1B / RFU, RFX7 / Fold change vs veh, RFX7 / RFU, GTPBP10 / Fold change vs veh, GTPBP10 / RFU, CNEP1R1 / Fold change vs veh, CNEP1R1 / RFU, BIVM-ERCC5 /// ERCC5 / Fold change vs veh, BIVM-ERCC5 /// ERCC5 / RFU, ILF3 / Fold change vs veh, ILF3 / RFU 11762660_at / Fold change /veh 11762660_at / RFU VCAN (11757783_s_at) / Fold change /veh VCAN (11757783_s_at) / RFU DDX43 (11728927_at) / Fold change /veh DDX43 (11728927_at) / RFU KRT8 (11758188_x_at) / Fold change /veh KRT8 (11758188_x_at) / RFU NKD1 (11759106_at) / Fold change /veh NKD1 (11759106_at) / RFU SRD5A1 (11742802_a_at) / Fold change /veh SRD5A1 (11742802_a_at) / RFU TPSAB1 /// TPSB2 (11721975_s_at) / Fold change /veh TPSAB1 /// TPSB2 (11721975_s_at) / RFU GSTM3 (11746129_a_at) / Fold change /veh GSTM3 (11746129_a_at) / RFU IL23R (11737362_x_at) / Fold change /veh IL23R (11737362_x_at) / RFU TMEM51 (11727254_a_at) / Fold change /veh TMEM51 (11727254_a_at) / RFU PIWIL2 (11732686_x_at) / Fold change /veh PIWIL2 (11732686_x_at) / RFU ORM1 (11744905_x_at) / Fold change /veh ORM1 (11744905_x_at) / RFU CCDC152 (11743942_at) / Fold change /veh CCDC152 (11743942_at) / RFU ECM1 (11717891_a_at) / Fold change /veh ECM1 (11717891_a_at) / RFU IL23R (11748794_a_at) / Fold change /veh IL23R (11748794_a_at) / RFU TNFAIP8L3 (11732012_x_at) / Fold change /veh TNFAIP8L3 (11732012_x_at) / RFU MBOAT4 (11741988_at) / Fold change /veh MBOAT4 (11741988_at) / RFU 11764193_at / Fold change /veh 11764193_at / RFU TMEM53 (11763286_at) / Fold change /veh TMEM53 (11763286_at) / RFU MAGEB2 (11727129_at) / Fold change /veh MAGEB2 (11727129_at) / RFU TMEM200A (11744735_a_at) / Fold change /veh TMEM200A (11744735_a_at) / RFU CCDC152 (11751479_a_at) / Fold change /veh CCDC152 (11751479_a_at) / RFU FAM211A (11726209_a_at) / Fold change /veh FAM211A (11726209_a_at) / RFU RGS16 (11746705_a_at) / Fold change /veh RGS16 (11746705_a_at) / RFU VCAN (11755009_s_at) / Fold change /veh VCAN (11755009_s_at) / RFU RHOB (11743442_s_at) / Fold change /veh RHOB (11743442_s_at) / RFU RGS16 (11720943_a_at) / Fold change /veh RGS16 (11720943_a_at) / RFU RGS16 (11720944_at) / Fold change /veh RGS16 (11720944_at) / RFU, VPS4B / Fold change vs veh, VPS4B / RFU, CREB1 / Fold change vs veh, CREB1 / RFU, DNAJC13 / Fold change vs veh, DNAJC13 / RFU, GNAQ / Fold change vs veh, GNAQ / RFU, CDK5R1 / Fold change vs veh, CDK5R1 / RFU, ZRANB3 / Fold change vs veh, ZRANB3 / RFU, CUL4A / Fold change vs veh, CUL4A / RFU, CCNY / Fold change vs veh, CCNY / RFU, UFL1 / Fold change vs veh, UFL1 / RFU, COG3 / Fold change vs veh, COG3 / RFU, DIAPH2 / Fold change vs veh, DIAPH2 / RFU, SKA2 / Fold change vs veh, SKA2 / RFU, AFF3 / Fold change vs veh, AFF3 / RFU, LMF1 / Fold change vs veh, LMF1 / RFU, IPO11 / Fold change vs veh, IPO11 / RFU, DFFB / Fold change vs veh, DFFB / RFU, FOXP1 / Fold change vs veh, FOXP1 / RFU, CARD8 / Fold change vs veh, CARD8 / RFU, STRN3 / Fold change vs veh, STRN3 / RFU, ADK / Fold change vs veh, ADK / RFU, RASSF2 / Fold change vs veh, RASSF2 / RFU, WIPF1 / Fold change vs veh, WIPF1 / RFU, LARP1B / Fold change vs veh, LARP1B / RFU, RASA1 / Fold change vs veh, RASA1 / RFU, RB1 / Fold change vs veh, RB1 / RFU, PPFIA1 / Fold change vs veh, PPFIA1 / RFU, MAT2A / Fold change vs veh, MAT2A / RFU, CCT5 / Fold change vs veh, CCT5 / RFU, WDR92 / Fold change vs veh, WDR92 / RFU, CUX1 / Fold change vs veh, CUX1 / RFU, TTC7A / Fold change vs veh, TTC7A / RFU, TMEM135 / Fold change vs veh, TMEM135 / RFU, DEPTOR / Fold change vs veh, DEPTOR / RFU, CPM / Fold change vs veh, CPM / RFU, DNAJB6 / Fold change vs veh, DNAJB6 / RFU, CACNA2D3 / Fold change vs veh, CACNA2D3 / RFU, DTX4 / Fold change vs veh, DTX4 / RFU, TFCP2 / Fold change vs veh, TFCP2 / RFU, GMCL1 /// GMCL1P1 / Fold change vs veh, GMCL1 /// GMCL1P1 / RFU, AEBP2 / Fold change vs veh, AEBP2 / RFU, SNHG1 /// SNORD22 /// SNORD25 /// SNORD26 /// SNORD27 /// SNORD28 /// SNORD29 /// SNORD31 / Fold change vs veh, SNHG1 /// SNORD22 /// SNORD25 /// SNORD26 /// SNORD27 /// SNORD28 /// SNORD29 /// SNORD31 / Fold change (Aza/veh), C12orf56 (ProbeSet 11735607_a_at) / Fold change (ACY-1035/veh), C12orf56 (ProbeSet 11735607_a_at) / Fold change (Aza/veh), FGFR1OP (ProbeSet 11751329_s_at) / Fold change (ACY-1035/veh), FGFR1OP (ProbeSet 11751329_s_at) / Fold change (Aza/veh), VPS36 (ProbeSet 11739960_a_at) / Fold change (ACY-1035/veh), VPS36 (ProbeSet 11739960_a_at) / RFU SYPL1 (11715823_x_at) / Fold change /veh SYPL1 (11715823_x_at) / RFU IGFBP7 (11715501_s_at) / Fold change /veh IGFBP7 (11715501_s_at) / RFU REEP3 (11722064_at) / Fold change /veh REEP3 (11722064_at) / RFU IGLL1 (11728026_x_at) / Fold change /veh IGLL1 (11728026_x_at): dose or concentration left out as unconfirmed
# Details: MV-4-11 cells, 48 hours
smiles,measurement,value
Nc1ccc(-c2cccs2)cc1NC(=O)c1ccc2c(c1)cc(C1CC1)n2CCN1CCOCC1 [ACY-1035],Fold change /veh NR4A2 (11747474_a_at),0.99
